This is an account of results in patent US11800867B2, “Methods of repelling biting arthropods, reducing pathogen spread and treating arthropod infestation” (priority 2016, dated 2023).

For data set [1] the following is noted: humans; compound found in bergamot and citrus essential oils; cited from earlier work.
Data set [2] concerns female Culex quinquefasciatus mosquitoes. Kind of data set: In vitro membrane feeder repellency assay, probing of treated collagen membranes (Example 2). The class given is in vivo. The conditions noted are these: 20% DEET in ethanol, 25 μL on collagen membrane; twenty minutes; average ± SE, n = 5. An excerpt:
(§1) A laboratory trial was required to evaluate the repellency of 1% Nootkatone against female Aedes aegypti, Culex quinquefasciatus, and Anopheles quadrimaculatus mosquitoes using an in vitro method.
(§2) Female adult laboratory reared Aedes aegypti, Culex quinquefasciatus, and Anopheles quadrimaculatus mosquitoes (susceptible) were obtained from Benzon Research in Carlisle, Pa. 250 mosquitoes were used per replicate (5 replicates per test, per species). Adult mosquitoes were 3-8 days old.
(§3) Nootkatone was diluted in ethanol and acetone (note that Nootkatone diluted in acetone was not tested against An. quadrimaculatus). A positive control consisting of 20% DEET in ethanol was prepared using stock solutions. Negative controls consisted of no treatment, and ethanol-only treatment.
(§4) The treatments were applied directly to prepared collagen membranes by pipetting 25 μL of the appropriate substance onto a membrane and spreading it evenly with the tip of the pipette.
(§5) Exposure container. A 30.5 cm×30.5 cm×30.5 cm rigid plastic frame supported by four, 4 cm high legs, with a sleeved entry on one side and a sliding door on the bottom.
(§6) Membrane feeder. Five wells (3 cm in diameter×8 mm in depth) in line on a hollow plastic block (6 cm wide×22 cm long×3 cm deep), which fits through the sliding door in the bottom of the exposure container. Hoses attached to each side of the block circulate heated water that is pumped from a water bath. The sliding door in the bottom of the exposure container covers and uncovers the wells in the membrane feeder, allowing mosquitoes to access the wells.
(§7) Test set-up. The membrane feeder was connected to a heated water bath, and warm water passed through the feeder via a circulating pump so that the wells were warmed to 89-95° F. Seventy-two (72) mg of ATP (disodium salt) were added to 26 mL of warmed citrated bovine blood, which was poured into the wells until they were completely full.
(§8) The collagen membranes were placed on vacuum greased wax paper for treatment. They were then treated as described above and left for five minutes to dry. After they dried, the membranes were placed over each of the wells (using vacuum grease as an adhesive), completely covering the blood.
(§9) Exposure to mosquitoes. The mosquitoes were released into the exposure container just prior to exposure to the membranes. The exposure container was then placed on the membrane feeder and the sliding door opened, allowing the mosquitoes to access the wells. The number of mosquitoes probing each membrane was recorded every two minutes for twenty minutes.
(§10) The above procedures were repeated until five replicates were completed. A new batch of 250 female mosquitoes and fresh blood were used for each replicate, and the wells were cleaned in between replicates. The position of the treatments was rotated for each replicate, so that each treatment was tested on each of the five wells.
(§11) Percent repellency was calculated for each replicate using the total number of probes with the following formula:
(§12) [formula] • where C=the total number of probes on the untreated well • and T=the total number of probes on the treated well
(§13) Average percent repellency and standard error were then calculated across all five replicates. Shapiro-Wilks tests were conducted to determine the normality of the data, based on total number of probes per replicate. Depending on normality, student t-tests (with concurrent F-tests for variance) or Mann-Whitney tests were then used to determine significance between the treatments.

Data set [3] concerns female Aedes aegypti mosquitoes. Described as above. In kind it is in vivo. The conditions noted are these: 20% DEET in ethanol, 25 μL on collagen membrane; twenty minutes; average ± SE, n = 5.
Source text: as §1, §2, §3, §4, §5, §6, §7, §8, §9, §10, §11, §12, §13

For data set [4], the system named is female Anopheles quadrimaculatus mosquitoes. Described as above. The class given is in vivo. Particulars: 20% DEET in ethanol, 25 μL on collagen membrane; twenty minutes; average ± SE, n = 5.
Source text: as §1, §2, §3, §4, §5, §6, §7, §8, §9, §10, §11, §12, §13

In the case of `COc1c2ccoc2cc2oc(=O)ccc12` [Bergapten, 5-methoxypsoralen], the Phototoxicity result in data set [1] is reported as “causes phototoxicity in humans”.

Take `CCN(CC)C(=O)c1cccc(C)c1` [DEET, N,N-Diethyl-meta-toluamide, reference compound]: the figures for the Percent repellency in data set [2], in data set [3] and in data set [4] were 95.9 ± 4.1%, 99.4 ± 0.6% and 100.0 ± 0.0%, respectively.
